Assay results from US11066447B2, “Aureobasidium derivatives and methods of synthesis” (AureoGen Biosciences, Inc., priority 2016, dated 2021).
In brackets after ≈: the same amount, converted by molar mass. Like-named read-outs stand apart in the source and are kept apart here. Numbered stars: 1 amine (or outer) side, 2 acyl side, 3 side chain; on linkers, the order of the positions; unused ones are H or OH. Square brackets hold non-standard residues; d marks the D form. Peptide text beside a SMILES is read from it. X21 = CC1CCN(c2cc(-c3cccc(C[C@@H](C(=O)[*:2])N(C)[*:1])c3)ccn2)CC1; X15 = CN([C@@H](Cc1cccc(-c2ccc(N3CCOCC3)nc2)c1)C(=O)[*:2])[*:1]; X11 = CN([C@@H](Cc1cccc(-c2cccc3ncccc23)c1)C(=O)[*:2])[*:1]; Hmp(2R,3S) = CC[C@H](C)[C@@H](O)C(=O)O; NMeVal(β-OH) = CN[C@H](C(=O)O)C(C)(C)O; NMeV = CN[C@H](C(=O)O)C(C)C

Legend:
[1] = tested on: C. albicans MMX 2000 ATCC 10231; assay: MIC assay (CLSI microdilution); assay type: cell-based; details: Candida albicans, ATCC10231, RPMI plus 0.002% Tween-80
[2] = tested on: A. niger MMX 0624 ATCC 16888; assay: MIC/MEC assay (CLSI microdilution); assay type: cell-based; details: Aspergillus niger, ATCC16888, 48 h
How it was run: (§1)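 CLSI broth microdilution in RPMI-1640 with 0.002% Tween-80; MMX 5280 was also tested without Tween-80. AbA compounds were two-fold serially diluted in 95% ethanol. Aspergillus spore inoculum was approx. 0.2-2.5×10^4 CFU/mL final.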

[3] = tested on: A. fumigatus MMX 6782 ATCC 13073; assay: MIC/MEC assay (CLSI microdilution); assay type: cell-based; details: Aspergillus fumigatus, ATCC13073, 48 h
How it was run: as §1

A. flavus MMX 5948 = assay: MIC/MEC assay (CLSI microdilution); assay type: cell-based; details: Aspergillus flavus, MMX5948, 48 h
How it was run: as §1

[4] = tested on: A. fumigatus MMX 5280 ATCC MYA-3626; assay: MIC/MEC assay (CLSI microdilution); assay type: cell-based, Aspergillus fumigatus
How it was run: as §1

[5] = tested on: C. parapsilosis MMX 2323 ATCC 22019; assay: MIC assay (CLSI microdilution); assay type: cell-based, Candida parapsilosis
How it was run: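 Broth microdilution MIC testing of Candida parapsilosis ATCC 22019 followed CLSI methods in RPMI-1640, with or without 0.002% Tween-80. Yeast grown 48 hours at 35° C on Sabouraud dextrose agar was suspended to a 0.5 McFarland standard and diluted 1:100 to roughly 0.5-2.5×10^3 CFU/mL. The MIC was the lowest concentration preventing visible growth.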

[6] = tested on: A. fumigatus MMX 6781 ATCC MYA-4609; assay: MIC/MEC assay (CLSI microdilution); assay type: cell-based; details: Aspergillus fumigatus; for MIC: 48 h, RPMI plus 0.002% Tween-80, read-out: MIC; for minimal effective concentration: RPMI plus 0.002% Tween-80, 48 hr
How it was run: as §1

A. fumigatus MMX 5944 = assay: MIC/MEC assay (CLSI microdilution); assay type: cell-based; details: Aspergillus fumigatus, MMX5944, 48 h; for minimal effective concentration: RPMI plus 0.002% Tween-80; for MIC: RPMI plus 0.002% Tween-80, read-out: MIC
How it was run: as §1

[7] = tested on: A. fumigatus from Aureogen; assay: MIC/MEC assay (CLSI microdilution); assay type: cell-based; details: Aspergillus fumigatus, 48 h; for minimal effective concentration: RPMI plus 0.002% Tween-80; for MIC: RPMI plus 0.002% Tween-80, read-out: MIC
How it was run: as §1

[8] = tested on: C. albicans MMX 2000 ATCC 10231; assay: MIC assay (CLSI microdilution); assay type: cell-based; details: Candida albicans, ATCC10231, RPMI plus 0.002% Tween-80; read-out: MIC
[9] = tested on: C. neoformans MMX 0634 ATCC 90112; assay: MIC assay (CLSI microdilution); assay type: cell-based; details: Cryptococcus neoformans, ATCC90112, RPMI plus 0.002% Tween-80; read-out: MIC
[10] = read-out: MEC, RPMI plus 0.002% Tween-80
[11] = RPMI plus 0.002% Tween-80, read-out: MEC
[12] = RPMI plus 0.002% Tween-80, read-out: MIC
[13] = Aspergillus fumigatus, 48 h, RPMI plus 0.002% Tween-80, read-out: MEC
[14] = Aspergillus fumigatus, 48 h, RPMI plus 0.002% Tween-80, read-out: MIC
[15] = Aspergillus fumigatus, 48 h, Without Tween-80, read-out: MEC
[16] = Aspergillus fumigatus, 48 h, Without Tween-80, read-out: MIC
[17] = ATCC22019, RPMI plus 0.002% Tween-80, read-out: MIC
[18] = ATCC22019, Without Tween-80, read-out: MIC

MIC [6] | MIC [2, 12] | MIC (A. fumigatus MMX 5944) | MIC [3, 12] | MIC [7] | MIC (A. flavus MMX 5948; [12]) | MIC [4, 14] | MIC [4, 16] | MIC [8] | MIC [9] | MIC [5, 17] | MIC [5, 18] | SMILES | minimal effective concentration [6] | minimal effective concentration [2, 11] | minimal effective concentration (A. fumigatus MMX 5944) | minimal effective concentration [3, 11] | minimal effective concentration [7] | minimal effective concentration (A. flavus MMX 5948; RPMI plus 0.002% Tween-80) | minimal effective concentration [4, 13] | minimal effective concentration [4, 15] | further results
 |  |  |  |  |  |  |  |  |  |  |  | CC[C@H](C)[C@@H]1NC(=O)[C@@H]2CCCN2C(=O)[C@H](Cc2cccc(-c3cccc4ncccc34)c2)N(C)C(=O)[C@H](Cc2ccccc2)NC(=O)[C@H](C(C)C)N(C)C(=O)[C@@H]([C@@H](C)CC)OC(=O)[C@H](C(C)(C)O)N(C)C(=O)[C@H](CC(C)C)NC(=O)[C@H](C(C)C)N(C)C1=O [Compound 28] (cyclo(F[X11]PI[NMeV]L[NMeVal(β-OH)][Hmp(2R,3S)][NMeV])) |  |  |  |  |  |  |  |  | MIC [1]: 0.015 µg/mL; MIC ([2]; RPMI plus 0.002% Tween-80): 0.12 µg/mL; minimal effective concentration [2, 10]: 0.12 µg/mL; MIC ([3]; RPMI plus 0.002% Tween-80): > 64 µg/mL; minimal effective concentration [3, 10]: > 64 µg/mL; MIC (A. flavus MMX 5948; RPMI plus 0.002% Tween-80): > 64 µg/mL; minimal effective concentration ([4]; Aspergillus fumigatus, 48 h, read-out: MEC, RPMI plus 0.002% Tween-80): > 64 µg/mL; minimal effective concentration ([4]; Aspergillus fumigatus, 48 h, read-out: MEC, Without Tween-80): > 64 µg/mL; MIC ([4]; Without Tween-80, 48 hr): >64/>64 μg/mL; MIC ([5]; ATCC22019, RPMI plus 0.002% Tween-80): 0.06 µg/mL; MIC ([5]; ATCC22019, Without Tween-80): 0.5 µg/mL (≈ 0.407 µM)
> 64 µg/mL | 0.25 µg/mL | > 64 µg/mL | > 64 µg/mL | > 64 µg/mL | 0.5 µg/mL | > 64 µg/mL | > 64 µg/mL | 0.03 µg/mL | 0.5 µg/mL | 0.12 µg/mL | 1 µg/mL (≈ 0.791 µM) | CC[C@H](C)[C@@H]1NC(=O)[C@@H]2CCCN2C(=O)[C@H](Cc2cccc(-c3ccc(N4CCOCC4)nc3)c2)N(C)C(=O)[C@H](Cc2ccccc2)NC(=O)[C@H](C(C)C)N(C)C(=O)[C@@H]([C@@H](C)CC)OC(=O)[C@H](C(C)(C)O)N(C)C(=O)[C@H](CC(C)C)NC(=O)[C@H](C(C)C)N(C)C1=O [Compound 24] (cyclo(F[X15]PI[NMeV]L[NMeVal(β-OH)][Hmp(2R,3S)][NMeV])) | > 64 µg/mL | 0.25 µg/mL | > 64 µg/mL | > 64 µg/mL | > 64 µg/mL | 0.25 µg/mL | > 64 µg/mL | > 64 µg/mL | 
> 64 µg/mL | 0.25 µg/mL | > 64 µg/mL | > 64 µg/mL | > 64 µg/mL | > 64 µg/mL | > 64 µg/mL | > 64 µg/mL | 0.06 µg/mL | 0.25 µg/mL | 0.12 µg/mL | 1 µg/mL (≈ 0.784 µM) | CC[C@H](C)[C@@H]1NC(=O)[C@@H]2CCCN2C(=O)[C@H](Cc2cccc(-c3ccnc(N4CCC(C)CC4)c3)c2)N(C)C(=O)[C@H](Cc2ccccc2)NC(=O)[C@H](C(C)C)N(C)C(=O)[C@@H]([C@@H](C)CC)OC(=O)[C@H](C(C)(C)O)N(C)C(=O)[C@H](CC(C)C)NC(=O)[C@H](C(C)C)N(C)C1=O [Compound 23] (cyclo(F[X21]PI[NMeV]L[NMeVal(β-OH)][Hmp(2R,3S)][NMeV])) | > 64 µg/mL | 0.12 µg/mL | > 64 µg/mL | > 64 µg/mL | > 64 µg/mL | > 64 µg/mL | > 64 µg/mL | > 64 µg/mL | 
